Read-outs that look alike come from different tables or passages of the source.
Tests used:
Type in all cases: cell-based
α-synuclein = target: T1, α-synuclein (Homo sapiens, UniProt P37840); assay: Dual chamber assay, cell-to-cell transmission of α-synuclein in SH-SY5Y cells; conditions: 12 hours
T1 construct: expressed in transfected cells; host or cells: SH-SY5Y
Protocol: A slide glass was included in the plate to stain the cells after the cell culture.
In an insert well of the 12-well plate as the apical chamber, an SH-SY5Y cell line in which α-synuclein was over-expressed was seeded at a density of 4×10^4 cells/well, and in the 12-well plate as the basal chamber, an SH-SY5Y cell line in which α-synuclein was not over-expressed was seeded at a density of 4×10^4 cells/well and they were incubated at a constant temperature. The next day, the insert well was transferred to a place where the 12-well plate was placed to form a dual chamber. Thereafter, the chamber was treated with DMSO or 5 μM efavirenz and incubated at a constant temperature for 12 hours. The SH-SY5Y cells in the plate in which the chamber was treated with DMSO were used as the control. Then, the SH-SY5Y cells in the plate were subjected to immunostaining and observed using a confocal microscope. During the immunostaining, α-synuclein was stained red, and the nuclei were stained blue. Also, fluorescence intensities of α-synuclein in the control and the cells treated with efavirenz were compared. A scale bar represents 20 μm. **P<0.01, ***P<0.001 against the control. […] Also, when the fluorescence intensities of the immunostained α-synuclein were compared, the fluorescence intensity in the cells treated with efavirenz decreased by approximately 80%, compared with that of the control (FIG. 2A).
In the case of the naphazoline-administered group, the cells treated with PBS were used as the control, and the cells treated with DMSO were used as the control in the case of the chlorhexidine- and tenofovir-administered groups. A scale bar represents 20 μm. **P<0.01 and ***P<0.001 against the control.

A53T α-synuclein = target: T2, A53T α-synuclein (Homo sapiens, UniProt P37840, A53T); assay: Co-culture assay of A53T EGFP and A53T mcherry SH-SY5Y cells, aggregation of α-synuclein
T2 construct: expressed in transfected cells; host or cells: SH-SY5Y (lentiviral transduction)
Protocol: A degeneration process of converting monomeric α-synuclein into aggregates may mainly cause Parkinson's disease. Therefore, it was tested whether efavirenz is involved in the propagation process of the over-expressed monomeric A53T α-synuclein to adjacent cells, which is converting the over-expressed monomeric α-synuclein into aggregates.
For this purpose, an SH-SY5Y cell line (A53T EGFP cells) in which EGFP-labeled A53T α-synuclein was over-expressed and an SH-SY5Y cell line (A53T mcherry cells) in which mcherry-labeled A53T α-synuclein was over-expressed were prepared using a lentivirus. Thereafter, the A53T EGFP cells and the A53T mcherry cells were mixed to prepare co-cultured cells. Then, the co-cultured cells were treated with DMSO or 5 μM efavirenz, and co-cultured in the presence of 50 μM retinoic acid (RA) for 5 days. The co-cultured cells treated with DMSO were used as the control. At 5 days of the co-culturing, the aggregated α-synuclein (inclusion body-positive cells) was confirmed using a confocal microscope (the rightmost image of fluorescence images shown in FIG. 3A). Also, each of a combined distribution of EGFP and mcherry in the A53T EGFP cells and a combined distribution of mcherry and EGFP in the A53T mcherry cells was confirmed. […] In the rightmost image of the fluorescence images of FIG. 3A, dots indicated in yellow represent the combining of mcherry and EGFP signals in the cells. In the rightmost image of the fluorescence images of FIG. 3A (a diagram in which EGFP+mcherry signals were combined), the dots indicated in yellow were counted to calculate ratios of the dots to the whole cells, and then plotted on a bar graph. A scale bar represents 20 μm, and ***P<0.001 against the control.
Also, to test whether chlorhexidine, naphazoline, and tenofovir were involved in the process of moving the over-expressed monomeric A53T α-synuclein to adjacent cells to convert the over-expressed monomeric α-synuclein into aggregates, the cells were treated with either 10 μM chlorhexidine, 100 μM naphazoline, or 20 μM tenofovir, and then tested in the same manner as in the experiment for efavirenz. However, in the case of the naphazoline-administered group, the cells treated with PBS were used as the control, and the cells treated with DMSO were also used as the control in the case of the chlorhexidine- and tenofovir-administered groups. A scale bar represents 20 μm.

SH-SY5Y cell line = assay: Cytotoxicity, cell viability by MTT test; conditions: 24 hours
Protocol: An SH-SY5Y cell line (ATCC) was used to confirm the cytotoxicity of efavirenz.
The SH-SY5Y cell line was seeded in a 96-well plate, cultured, treated with an increasing concentration (0, 5, 25 μM) of efavirenz, and then incubated at a constant temperature for 24 hours. Thereafter, cell viability was measured using an MTT test method. Cells treated with 0 μM efavirenz were used as the control. **P<0.01 against the control.
Also, in the next experiment, the cytotoxicities of chlorhexidine (N,N″″-1,6-hexanediylbis[N′-(4-chlorophenyl)(imidocarbon imidic diamide)]), naphazoline(2-(1-naphthylmethyl)-4,5-dihydro-1H-imidazole), and tenofovir (({[(2R)-1-(6-amino-9H-purin-9-yl)-[…]]oxy}methyl)phosphonic acid) to be used as reference drugs were tested in the same manner as in the cytotoxicity experiment of efavirenz. Cells were treated with chlorhexidine at a concentration of 0, 10, 100 μM, treated with naphazoline at a concentration of 0, 100, 200 μM, and treated with tenofovir at a concentration of 0, 20, 30 μM, and cells treated with each control drug at a concentration of 0 μM was used as the control. *P<0.05, ***P<0.001 against the control.

[1] = 10 μM, 5 days co-culture, DMSO control
[2] = 20 μM, 5 days co-culture, DMSO control

[H]/N=C(\N/C(=N/[H])NCCCCCCNC(=N)NC(=N)Nc1ccc(Cl)cc1)Nc1ccc(Cl)cc1 [chlorhexidine, N,N″″-1,6-hexanediylbis[N′-(4-chlorophenyl)(imidocarbonimidic diamide)]]
cell-to-cell transmission of α-synuclein compared with the control (fluorescence image) (α-synuclein; 10 μM, DMSO control): remarkably increased | amount of aggregated α-synuclein compared with the control cells (A53T α-synuclein; [1]): increased or were not significantly different | distribution of α-synuclein compared with the control cells (A53T α-synuclein; [1]): increased or were not significantly different

O=C1Nc2ccc(Cl)cc2[C@@](C#CC2CC2)(C(F)(F)F)O1 [efavirenz, (4S)-6-chloro-(cyclopropylethynyl)-1,4-dihydro-4-(trifluoromethyl)-2H-3,1-benzoxazin-2-one]
decrease of fluorescence intensity of immunostained α-synuclein compared with the control (α-synuclein; 5 μM, DMSO control): approximately 80%

c1ccc2c(CC3=NCCN3)cccc2c1 [naphazoline, 2-(1-naphthylmethyl)-4,5-dihydro-1H-imidazole]
cell-to-cell transmission of α-synuclein compared with the control (fluorescence image) (α-synuclein; 100 μM, PBS control): remarkably increased | distribution of α-synuclein compared with the control cells (A53T α-synuclein): increased or were not significantly different | amount of aggregated α-synuclein compared with the control cells (A53T α-synuclein; 100 μM, 5 days co-culture, PBS control): increased or were not significantly different

C[C@H](Cn1cnc2c(N)ncnc21)OCP(=O)(O)O [tenofovir]
cell viability compared with the control (SH-SY5Y cell line; 20 μM): not changed significantly | cell viability compared with the control (SH-SY5Y cell line; 30 μM): significant decrease | cell-to-cell transmission of α-synuclein compared with the control (fluorescence image) (α-synuclein; 20 μM, DMSO control): remarkably increased | amount of aggregated α-synuclein compared with the control cells (A53T α-synuclein; [2]): increased or were not significantly different | distribution of α-synuclein compared with the control cells (A53T α-synuclein; [2]): increased or were not significantly different

Source: patent publication US12521398B2, “Composition for treating synucleinopathies” (STANDIGM INC., priority 2019, dated 2026)
